Among the data in ChEMBL document CHEMBL4619713, “Novel PDE5 inhibitors derived from rutaecarpine for the treatment of Alzheimer's disease” (Bioorg Med Chem Lett, 2020) are IC50, Ratio IC50 and Activity values, retold here.

Molecules are shown by their SMILES. Calls of active or inactive are those of the source. The rule behind the calls is not given here.

Test [1] has as its target cGMP-specific 3',5'-cyclic phosphodiesterase (Homo sapiens, UniProt O76074). The experiment in a line: Inhibition of PDE5A (unknown origin).
For test [2], the species on record is Homo sapiens. The experiment in a line: Selectivity index, ratio of IC50 for PDE6 (unknown origin) to IC50 for PDE5A (unknown origin).
Test [3] is filed under the species Homo sapiens. Put plainly: Selectivity index, ratio of IC50 for PDE2 (unknown origin) to IC50 for PDE5A (unknown origin).
Test [4] concerns Mus musculus. Put plainly: Cognitive enhancing effect in mouse mouse model of scopolamine-induced cognition deficit assessed as decrease in frequent error at 5 and 10 mg/kg by water maze test. The test is classed as functional, organism-based.
The species named for test [5] is Homo sapiens. The experiment in a line: Selectivity index, ratio of IC50 for PDE9 (unknown origin) to IC50 for PDE5A (unknown origin).
The subject of test [6] is Mus musculus. The experiment in a line: Cognitive enhancing effect in mouse mouse model of scopolamine-induced cognition deficit assessed as reduction in escape latency at 5 and 10 mg/kg by water maze test. The test is classed as functional, organism-based.
For a further test, the target named is Phosphodiesterase 4 (Homo sapiens, UniProt P27815+Q08499+Q07343+Q08493). The experiment in a line: Inhibition of PDE4 (unknown origin). The class given is protein assay.
Another test addresses Phosphodiesterase 6. Put plainly: Inhibition of PDE6 (unknown origin). The test is classed as protein assay, Homo sapiens.
The target of test [7] is cGMP-dependent 3',5'-cyclic phosphodiesterase (Homo sapiens, UniProt O00408). The experiment in a line: Inhibition of PDE2 (unknown origin).
Test [8] is filed under the species Homo sapiens. The experiment in a line: Selectivity index, ratio of IC50 for PDE4 (unknown origin) to IC50 for PDE5A (unknown origin).
Test [9] deals with cAMP and cAMP-inhibited cGMP 3',5'-cyclic phosphodiesterase 10A (Homo sapiens, UniProt Q9Y233). Put plainly: Inhibition of PDE10 (unknown origin).
For test [10], the target named is High affinity cGMP-specific 3',5'-cyclic phosphodiesterase 9A (Homo sapiens, UniProt O76083). The experiment in a line: Inhibition of PDE9 (unknown origin).

Broadly, the IC50 is the midpoint of a concentration-inhibition curve. The low end stands for greater potency in that assay, the high end for weaker potency in that assay.

Chain of High affinity cGMP-specific 3',5'-cyclic phosphodiesterase 9A (O76083 whole entry): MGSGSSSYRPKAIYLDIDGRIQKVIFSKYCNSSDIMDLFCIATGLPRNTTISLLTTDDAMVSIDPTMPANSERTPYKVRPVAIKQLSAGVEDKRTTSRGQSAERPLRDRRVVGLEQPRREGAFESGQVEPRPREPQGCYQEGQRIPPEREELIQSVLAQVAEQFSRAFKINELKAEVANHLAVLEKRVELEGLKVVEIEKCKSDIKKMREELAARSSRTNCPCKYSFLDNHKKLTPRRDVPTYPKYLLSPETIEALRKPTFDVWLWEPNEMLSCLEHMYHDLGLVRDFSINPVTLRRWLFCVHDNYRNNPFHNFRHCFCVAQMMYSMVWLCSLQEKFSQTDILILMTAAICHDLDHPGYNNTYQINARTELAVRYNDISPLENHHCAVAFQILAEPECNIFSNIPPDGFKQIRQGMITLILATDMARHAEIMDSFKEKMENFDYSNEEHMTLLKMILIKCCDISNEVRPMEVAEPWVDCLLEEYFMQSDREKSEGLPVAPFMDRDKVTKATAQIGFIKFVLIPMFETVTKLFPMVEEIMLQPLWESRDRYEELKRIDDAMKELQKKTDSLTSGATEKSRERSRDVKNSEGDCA
Chain of cGMP-dependent 3',5'-cyclic phosphodiesterase (O00408 whole entry): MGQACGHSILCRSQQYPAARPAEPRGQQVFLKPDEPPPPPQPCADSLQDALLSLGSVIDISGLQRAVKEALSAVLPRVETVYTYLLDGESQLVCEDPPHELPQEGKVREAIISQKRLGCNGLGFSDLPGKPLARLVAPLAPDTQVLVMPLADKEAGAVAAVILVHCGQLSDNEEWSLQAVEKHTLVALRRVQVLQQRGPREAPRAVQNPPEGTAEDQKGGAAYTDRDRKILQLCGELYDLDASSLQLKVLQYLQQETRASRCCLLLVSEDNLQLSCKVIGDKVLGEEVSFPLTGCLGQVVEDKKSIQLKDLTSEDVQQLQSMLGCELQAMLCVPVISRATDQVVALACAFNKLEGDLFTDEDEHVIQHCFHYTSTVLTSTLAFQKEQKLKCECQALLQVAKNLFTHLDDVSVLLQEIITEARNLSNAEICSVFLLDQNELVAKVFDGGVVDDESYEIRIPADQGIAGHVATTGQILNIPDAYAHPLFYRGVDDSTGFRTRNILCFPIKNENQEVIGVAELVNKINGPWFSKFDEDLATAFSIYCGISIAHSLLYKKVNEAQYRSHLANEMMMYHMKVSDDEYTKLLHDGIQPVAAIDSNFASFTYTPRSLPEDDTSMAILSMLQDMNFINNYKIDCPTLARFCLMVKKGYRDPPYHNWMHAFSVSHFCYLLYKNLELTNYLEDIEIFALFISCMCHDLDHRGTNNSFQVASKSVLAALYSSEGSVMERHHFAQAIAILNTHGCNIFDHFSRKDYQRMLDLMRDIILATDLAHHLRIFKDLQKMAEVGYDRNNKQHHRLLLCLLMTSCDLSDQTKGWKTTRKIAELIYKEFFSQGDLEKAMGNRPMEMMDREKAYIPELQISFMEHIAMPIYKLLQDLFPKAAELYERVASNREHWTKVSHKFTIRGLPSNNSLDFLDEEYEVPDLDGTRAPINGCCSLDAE
Chain of cAMP and cAMP-inhibited cGMP 3',5'-cyclic phosphodiesterase 10A (Q9Y233 whole entry): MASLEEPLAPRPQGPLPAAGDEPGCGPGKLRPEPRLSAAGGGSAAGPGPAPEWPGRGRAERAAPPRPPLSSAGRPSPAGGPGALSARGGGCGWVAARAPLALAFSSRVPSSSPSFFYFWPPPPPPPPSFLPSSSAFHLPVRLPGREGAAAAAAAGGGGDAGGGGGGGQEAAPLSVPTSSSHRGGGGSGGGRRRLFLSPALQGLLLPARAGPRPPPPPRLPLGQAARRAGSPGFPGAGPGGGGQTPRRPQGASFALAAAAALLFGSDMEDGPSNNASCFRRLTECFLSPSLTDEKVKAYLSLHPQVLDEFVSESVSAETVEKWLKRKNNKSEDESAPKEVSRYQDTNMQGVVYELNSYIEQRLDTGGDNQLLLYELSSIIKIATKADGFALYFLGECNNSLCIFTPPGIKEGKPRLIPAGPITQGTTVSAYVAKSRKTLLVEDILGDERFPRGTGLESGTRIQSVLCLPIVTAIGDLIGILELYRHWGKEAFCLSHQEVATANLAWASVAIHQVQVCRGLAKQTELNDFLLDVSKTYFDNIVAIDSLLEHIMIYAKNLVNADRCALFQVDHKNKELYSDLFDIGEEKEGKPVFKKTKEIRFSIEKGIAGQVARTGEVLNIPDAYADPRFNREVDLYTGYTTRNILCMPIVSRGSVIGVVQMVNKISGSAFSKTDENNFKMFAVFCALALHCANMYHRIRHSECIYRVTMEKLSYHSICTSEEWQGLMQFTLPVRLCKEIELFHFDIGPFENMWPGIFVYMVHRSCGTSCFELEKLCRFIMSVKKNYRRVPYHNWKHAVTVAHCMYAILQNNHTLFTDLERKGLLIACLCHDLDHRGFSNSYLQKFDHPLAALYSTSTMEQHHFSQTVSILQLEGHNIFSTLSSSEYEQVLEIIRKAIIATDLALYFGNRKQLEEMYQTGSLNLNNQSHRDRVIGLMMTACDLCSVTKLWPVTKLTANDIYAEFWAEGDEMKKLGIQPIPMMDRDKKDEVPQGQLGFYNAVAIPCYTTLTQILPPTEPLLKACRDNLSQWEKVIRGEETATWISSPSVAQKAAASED

With `COc1cc2c(cc1OC)C(=O)C(CC1CCN(Cc3ccccc3)CC1)C2` (stereo not drawn) [DONEPEZIL], the 50% inhibitory concentration (IC50) in test [1] is > 100 µM.
Regarding `COc1cc(OC)c2c3c(n(CCC(C)C)c2c1)-c1nc2ccccc2c(=O)n1CC3`, half-maximal inhibition in test [1] (IC50) was put at 18.2 µM.
On the same count and under the same terms, to `O=c1c2ccccc2nc2n1CCc1c-2[nH]c2cc(O)ccc12` belongs 1.36 µM; to `CCn1c2c(c3c(O)cc(O)cc31)CCn1c-2nc2ccccc2c1=O`, 0.97 µM.
The same measure, in the same setting: to `COc1ccc2c3c(n(CCC(C)C)c2c1)-c1nc2ccccc2c(=O)n1CC3` belongs 6.17 µM.
In the case of `CCCc1nn(C)c2c(=O)[nH]c(-c3cc(S(=O)(=O)N4CCN(C)CC4)ccc3OCC)nc12`, in the test listed under Homo sapiens [2], the Ratio IC50 is 10.
`CCCCn1c2c(c3ccccc31)CCn1c-2nc2ccccc2c1=O` yielded a half-maximal inhibitory concentration (IC50) in test [1] of 1.12 µM.
The same measure, in the same setting: as for `CCn1c2c(c3ccc(O)cc31)CCn1c-2nc2ccccc2c1=O`, the figure is 0.97 µM; as for `COc1ccc2c3c([nH]c2c1)-c1nc2ccccc2c(=O)n1CC3`, 22.1 µM.
The same measure, in the same setting: as for `CCn1c2c(c3ccccc31)CCn1c-2nc2ccccc2c1=O`, the figure is 1.12 µM.
In the case of `CC(C)CCn1c2c(c3c(O)cc(O)cc31)CCn1c-2nc2ccccc2c1=O`, the Ratio IC50 is > 500 in the test listed under Homo sapiens [2], > 5000 in the test filed under Homo sapiens [3], > 5000 in the test filed under Homo sapiens [5] and > 5000 in the test listed under Homo sapiens [8]. In addition, the outcome in the test with Mus musculus [4] and in the test with Mus musculus [6] was Active. The half-inhibitory concentration (IC50) against Phosphodiesterase 4 is > 500 µM; at Phosphodiesterase 6 it was 43.8 µM; in [1], 0.086 µM; in test [7] it was > 500 µM; in test [9], 32.1 µM; in test [10], > 500 µM.
Compound `COc1cc(OC)c2c3c([nH]c2c1)-c1nc2ccccc2c(=O)n1CC3` came in with an IC50 in test [1] of 45.6 µM.
On the same count and under the same terms, as for `CCCCn1c2c(c3c(O)cc(O)cc31)CCn1c-2nc2ccccc2c1=O`, the figure is 0.26 µM; as for `CCn1c2c(c3ccc(OC)cc31)CCn1c-2nc2ccccc2c1=O`, 11.6 µM.
Turning to `CCCn1c2c(c3c(OC)cc(OC)cc31)CCn1c-2nc2ccccc2c1=O`, in test [1], the concentration for half-maximal inhibition (IC50) was determined as 19.8 µM. Compared with the last compound, the IC50 is about 1.7-fold higher.
In turn, `O=c1c2ccccc2nc2n1CCc1c-2[nH]c2ccccc12` [RUTAECARPINE] returned a half-inhibitory concentration (IC50) in test [1] of 1.23 µM. This IC50 is about 16-fold lower than that of the compound before.
As to `CCCCn1c2c(c3ccc(OC)cc31)CCn1c-2nc2ccccc2c1=O`, the 50% inhibitory concentration (IC50) in test [1] was found to be 9.19 µM.
Still for that read-out and setting: to `CC(C)CCn1c2c(c3ccc(O)cc31)CCn1c-2nc2ccccc2c1=O` belongs 0.11 µM; to `CCCn1c2c(c3c(O)cc(O)cc31)CCn1c-2nc2ccccc2c1=O`, 0.33 µM.
The same measure, in the same setting: to `CC(C)CCn1c2c(c3ccccc31)CCn1c-2nc2ccccc2c1=O` belongs 0.61 µM; to `CCn1c2c(c3c(OC)cc(OC)cc31)CCn1c-2nc2ccccc2c1=O`, 47.3 µM.
For the compound `CCCn1c2c(c3ccc(O)cc31)CCn1c-2nc2ccccc2c1=O`, the IC50 in test [1] worked out at 1.33 µM.
On the same count and under the same terms, to `CCCCn1c2c(c3c(OC)cc(OC)cc31)CCn1c-2nc2ccccc2c1=O` belongs 20.6 µM.
In test [1], `CCCCn1c2c(c3ccc(O)cc31)CCn1c-2nc2ccccc2c1=O` had a half-maximal inhibitory concentration (IC50) of 0.63 µM.
The same measure, in the same setting: to `CCCn1c2c(c3ccccc31)CCn1c-2nc2ccccc2c1=O` belongs 1.7 µM; to `CCCn1c2c(c3ccc(OC)cc31)CCn1c-2nc2ccccc2c1=O`, 12.1 µM.
The same measure, in the same setting: as for `O=c1c2ccccc2nc2n1CCc1c-2[nH]c2cc(O)cc(O)c12`, the figure is 0.79 µM.
